Experimental data reported in patent publication US9045445B2, “Glycine transporter-1 inhibitors, methods of making them, and uses thereof” (Albany Molecular Research, Inc., priority 2010, dated 2015).
Counter-ions that a name gives are not always drawn.

Key:
[1] = target: T1, glycine transporter-1 (GlyT-1) (Homo sapiens, UniProt P48067); assay: [14C]glycine uptake assay in JAR cells endogenously expressing GlyT-1 (scintillation proximity); type: cell-based; conditions: JAR cells, [14C]glycine 5 μM, 3 hour incubation; read-out: GlyT-1 IC50
T1 construct: JAR cells (ATCC#HTB-144), which endogenously express GlyT-1; host or cells: JAR human choriocarcinoma cells
T1 sequence (P48067 1-706): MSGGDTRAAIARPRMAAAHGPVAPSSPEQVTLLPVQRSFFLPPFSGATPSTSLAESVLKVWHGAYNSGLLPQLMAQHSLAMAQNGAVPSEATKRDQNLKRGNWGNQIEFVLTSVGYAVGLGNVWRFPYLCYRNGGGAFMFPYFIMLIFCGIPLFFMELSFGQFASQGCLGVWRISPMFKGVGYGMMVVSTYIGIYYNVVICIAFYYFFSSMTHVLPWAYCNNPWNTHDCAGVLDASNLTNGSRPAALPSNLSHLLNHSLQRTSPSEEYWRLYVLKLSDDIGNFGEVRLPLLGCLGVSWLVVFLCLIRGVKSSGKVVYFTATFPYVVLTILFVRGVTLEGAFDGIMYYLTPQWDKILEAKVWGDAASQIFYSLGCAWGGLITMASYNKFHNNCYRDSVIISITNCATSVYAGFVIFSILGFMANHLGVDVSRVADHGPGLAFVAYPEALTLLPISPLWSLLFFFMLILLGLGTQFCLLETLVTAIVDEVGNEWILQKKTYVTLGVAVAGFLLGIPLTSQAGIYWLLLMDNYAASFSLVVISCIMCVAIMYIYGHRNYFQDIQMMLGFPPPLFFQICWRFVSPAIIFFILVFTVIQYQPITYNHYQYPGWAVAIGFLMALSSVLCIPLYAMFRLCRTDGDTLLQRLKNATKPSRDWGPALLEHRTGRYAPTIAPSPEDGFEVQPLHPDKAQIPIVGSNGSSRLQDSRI
Procedure, shortened: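 Human choriocarcinoma JAR cells (endogenous GlyT-1) attached overnight, then pre-incubated 10 min at room temperature with compound in pH 7.4 Hepes uptake buffer containing 5 mM alanine and 0.75% DMSO. Uptake of 5 μM [14C]glycine over 3 h at 37 °C read by scintillation proximity; IC50 from four-parameter fit of nine-point curves.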

[2] = target: T2, glycine transporter-2 (GlyT-2) (Homo sapiens, UniProt Q9Y345); assay: [14C]glycine uptake assay in HEK-GlyT-2 transfected cells; type: cell-based; conditions: HEK-GlyT-2 cells
T2 construct: expressed in transfected cells
T2 sequence (Q9Y345 1-797): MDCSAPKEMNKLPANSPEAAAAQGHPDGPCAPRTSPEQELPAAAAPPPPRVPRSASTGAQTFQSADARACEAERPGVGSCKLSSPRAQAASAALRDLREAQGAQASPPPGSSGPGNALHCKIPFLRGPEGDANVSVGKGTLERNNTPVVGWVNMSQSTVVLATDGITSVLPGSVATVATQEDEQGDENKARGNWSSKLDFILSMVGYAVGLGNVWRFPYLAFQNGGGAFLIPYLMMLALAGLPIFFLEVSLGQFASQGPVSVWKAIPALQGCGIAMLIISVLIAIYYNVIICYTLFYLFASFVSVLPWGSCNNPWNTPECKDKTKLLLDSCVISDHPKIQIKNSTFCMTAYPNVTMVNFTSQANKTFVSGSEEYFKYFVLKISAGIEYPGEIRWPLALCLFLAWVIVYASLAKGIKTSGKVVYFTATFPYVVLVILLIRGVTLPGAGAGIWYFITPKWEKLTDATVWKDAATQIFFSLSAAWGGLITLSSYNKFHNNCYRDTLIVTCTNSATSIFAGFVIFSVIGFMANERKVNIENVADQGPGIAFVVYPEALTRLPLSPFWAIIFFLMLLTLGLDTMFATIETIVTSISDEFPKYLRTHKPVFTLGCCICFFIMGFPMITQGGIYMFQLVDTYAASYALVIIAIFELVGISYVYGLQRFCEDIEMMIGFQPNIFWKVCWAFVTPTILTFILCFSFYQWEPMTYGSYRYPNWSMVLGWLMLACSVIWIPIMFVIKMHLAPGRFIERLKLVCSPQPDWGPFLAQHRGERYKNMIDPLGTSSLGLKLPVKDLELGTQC

SMILES	IC50 [1] [nM]	IC50 [2] [nM]
CCCS(=O)(=O)N1CCN(C2(CNC(=O)c3ccccc3F)CCCCCC2)CC1 [compound 63, 2-Fluoro-N-((1-(4-(propylsulfonyl)piperazin-1-yl)cycloheptyl)methyl) benzamide Hydrochloride]	99	> 75000
CCCS(=O)(=O)N1CCN(C2(CNC(=O)c3c(N)cccc3F)CCCCC2)CC1 [compound 41, 2-Amino-6-fluoro-N-((1-(4-(propylsulfonyl)piperazin-1-yl)cyclohexyl)methyl) benzamide Hydrochloride]	71	> 75000
CCCS(=O)(=O)N1CCN(C2(CNC(=O)c3ccc(C)cc3)CCCCC2)CC1 [compound 25, 4-Methyl-N-((1-(4-(propylsulfonyl)piperazin-1-yl)cyclohexyl)methyl) benzamide Hydrochloride]	767	> 75000
CCS(=O)(=O)N1CCN(C2(CNC(=O)c3ccc(C(F)(F)F)cc3Cl)CCC(F)(F)CC2)CC1 [compound 203, 2-Chloro-N-((1-(4-(ethylsulfonyl)piperazin-1-yl)-4,4-difluorocyclohexyl)methyl)-4-(trifluoromethyl) benzamide Hydrochloride]	94	> 75000
CCCS(=O)(=O)N1CCN(C2(CNC(=O)c3ccc(Cl)c(Cl)c3)CCCCCC2)CC1 [compound 68, 3,4-Dichloro-N-((1-(4-(propylsulfonyl)piperazin-1-yl)cycloheptyl)methyl) benzamide Hydrochloride]	174	3150
CCCS(=O)(=O)N1CCN(C2(CNC(=O)c3c(Cl)cccc3Cl)CCOCC2)CC1 [compound 119, 2,6-Dichloro-N-((4-(4-(propylsulfonyl)piperazin-1-yl)tetrahydro-2H-pyran-4-yl)methyl)benzamide Hydrochloride]	276	> 45000
CCCS(=O)(=O)N1CCN(C2(CNC(=O)c3c(C)cccc3C)CCOCC2)CC1 [compound 120, 2,6-Dimethyl-N-((4-(4-(propylsulfonyl)piperazin-1-yl)tetrahydro-2H-pyran-4-yl)methyl)benzamide Hydrochloride]	175	41300
CCCS(=O)(=O)N1CCN(C2(CNC(=O)c3ccc(F)cc3)CCCCC2)CC1 [compound 15, 4-Fluoro-N-((1-(4-(propylsulfonyl)piperazin-1-yl)cyclohexyl)methyl) benzamide Hydrochloride]	786	> 75000
CCCS(=O)(=O)N1CCN(C2(CNC(=O)c3cccc(C(F)(F)F)c3)CCCCC2)CC1 [compound 28, N-((1-(4-(Propylsulfonyl)piperazin-1-yl)cyclohexyl)methyl)-3-(trifluoromethyl) benzamide Hydrochloride]	523	> 75000
CCCS(=O)(=O)N1CCN(C2(CNC(=O)c3ccc(C(F)(F)F)cc3)CCCCCC2)CC1 [compound 61, N-((1-(4-(Propylsulfonyl)piperazin-1-yl)cycloheptyl)methyl)-4-(trifluoromethyl) benzamide Hydrochloride]	105	28000

These reach a lower IC50 [1]. Values come first.

IC50 [1] [nM]	IC50 [2] [nM]	SMILES
64	> 75000	CCCS(=O)(=O)N1CCN(C2(CNC(=O)c3ccccc3C(F)(F)F)CCC(F)(F)CC2)CC1 [compound 132, N-((4,4-Difluoro-1-(4-(propylsulfonyl)piperazin-1-yl)cyclohexyl)methyl)-2-(trifluoromethyl) benzamide Hydrochloride]
43	≥ 75000	CCCS(=O)(=O)N1CCN(C2(CNC(=O)c3c(C(F)(F)F)ccc(Cl)c3F)CCCCC2)CC1 [compound 5, 3-Chloro-2-fluoro-N-((1-(4-(propylsulfonyl)piperazin-1-yl)cyclohexyl)methyl)-6-(trifluoromethyl)benzamide Hydrochloride]
42	> 75000	CCCS(=O)(=O)N1CCN(C2(CNC(=O)c3c(Cl)cccc3Cl)CCC(F)(F)CC2)CC1 [compound 135, 2,6-Dichloro-N-((4,4-difluoro-1-(4-(propylsulfonyl)piperazin-1-yl)cyclohexyl)methyl) benzamide Hydrochloride]
31	> 75000	Cn1cc(S(=O)(=O)N2CCN(C3(CNC(=O)c4c(Cl)cccc4Cl)CCCC3)CC2)nn1 [compound 109, 2,6-Dichloro-N-((1-(4-(1-methyl-1H-l,2,3-triazol-4-ylsulfonyl)piperazin-1-yl)cyclopentyl)methyl) benzamide Hydrochloride]
18	> 75000	CCCS(=O)(=O)N1CCN(C2(CNC(=O)c3ccc(Cl)cc3C(F)(F)F)CCC(F)(F)CC2)CC1 [compound 245, 4-Chloro-N-((4,4-difluoro-1-(4-(propylsulfonyl)piperazin-1-yl)cyclohexyl)methyl)-2-(trifluoromethyl)benzamide Hydrochloride]
17	> 75000	CCCS(=O)(=O)N1CCN(C2(CNC(=O)c3c(F)cccc3OC)CCCCC2)CC1 [compound 44, 2-Fluoro-6-methoxy-N-((1-(4-(propyl-sulfonyl)piperazin-1-yl)cyclohexyl)methyl) benzamide Hydrochloride]
6	> 75000	Cn1cnc(S(=O)(=O)N2CCN(C3(CNC(=O)c4c(Cl)cccc4C(F)(F)F)CCC(F)(F)CC3)CC2)c1 [compound 185, 2-Chloro-N-((4,4-difluoro-1-(4-(1-methyl-1H-imidazol-4-ylsulfonyl)piperazin-1-yl)cyclohexyl)methyl)-6-(trifluoromethyl)benzamide Hydrochloride]
4	39000	CCCS(=O)(=O)N1CCN(C2(CNC(=O)c3c(OC)cc(C(F)(F)F)cc3C(F)(F)F)CCCCC2)CC1 [compound 21, 2-Methoxy-N-((1(1-(4-(propylsulfonyl)piperazin-1-yl)cyclohexyl)methyl)-4,6-bis(trifluoromethyl)benzamide Hydrochloride]
4	> 75000	Cn1cnc(S(=O)(=O)N2CCN(C3(CNC(=O)c4c(F)cccc4F)CCCCC3)CC2)c1 [compound 98, 2,6-Difluoro-N-((1-(4-(1-methyl-1H-imidazol-4-ylsulfonyl)piperazin-1-yl)cyclohexyl)methyl) benzamide Hydrochloride]
3	> 75000	Cn1cc(S(=O)(=O)N2CCN(C3(CNC(=O)c4c(F)cc(Cl)cc4F)CCC(F)(F)CC3)CC2)nn1 [compound 230, 4-Chloro-N-((4,4-difluoro-1-(4-(1-methyl-1H-1,2,3-triazol-4-ylsulfonyl)piperazin-1-yl)cyclohexyl)methyl)-2,6-difluorobenzamide Hydrochloride]
2	> 75000	Cn1cnc(S(=O)(=O)N2CCN(C3(CNC(=O)c4ccc(Cl)cc4Cl)CCCCC3)CC2)c1 [compound 97, 2,4-Dichloro-N-((1-(4-(1-methyl-1H-imidazol-4-ylsulfonyl)piperazin-1-yl)cyclohexyl)methyl) benzamide Hydrochloride]
1	> 75000	Cc1cccc(C)c1C(=O)NCC1(N2CCN(S(=O)(=O)c3cn(C)cn3)CC2)CCCCC1 [compound 95, 2,6-Dimethyl-N-((1-(4-(1-methyl-1H-imidazol-4-ylsulfonyl)piperazin-1-yl)cyclohexyl)methyl) benzamide Hydrochloride]
